Read-outs that look alike come from different tables or passages of the source.
Assays:
[1] = system: IL-15 induced P-STAT5 in human PBMC (total lymphocytes); assay: PBMC IL-15 Induced P-STAT5; type: cell-based; details: IL-15 stimulated, read-out: PBMC IL15-pSTAT5 IC50
Method in brief: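 Thawed human PBMC in RPMI, preincubated 30 min at 37 °C, then IL-15 stimulated. Cells methanol-permeabilized (90%, on ice 20 min) and stained for phospho-STAT5. Read by flow cytometry, gated on total lymphocytes.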

[2] = system: IL-15 induced STAT5 phosphorylation in Human Whole Blood (total lymphocytes); assay: HWB IL-15 Induced STAT5 Phosphorylation Assay; type: cell-based; details: Lymphocyte, IL-15 stimulated, read-out: HWB-IL15-pSTAT5 IC50
Procedure: HWB IL-15 Induced STAT5 Phosphorylation Assay
After mixing and incubating for 45 minutes at 37° C., 5 μl D-PBS (unstimulated control) or 20× stocks of 5 μl human IL-15 (final concentration is 50 ng/ml) were added, and mixed three times. After incubating 15 minutes at 37° C., 1× Lyse/Fix Buffer (BD Phosflow 5× Lyse/Fix Buffer) was added to all wells at 1000 μl/well, then incubated for 20 minutes at 37° C. and spun 5 mins at 1200 rpm. […] Following incubating at 4° C. over night, all the samples were transferred to 96-well polypropylene U-bottom plate, and checked by flow cytometry gated on total lymphocytes.

## C=CC(=O)N1CCC(Nc2cnc3[nH]cc(-c4cccnc4)c3n2)CC1 [Example 205, 1-(4-{[7-(pyridin-3-yl)-5H-pyrrolo[2,3-b]pyrazin-2-yl]amino}piperidin-1-yl)prop-2-en-1-one]
[1]
  IC50: 219 nM
[2]
  IC50: 1880 nM

## C=CC(=O)N1CCC(Nc2cnc3[nH]cc(-c4ccc(F)nc4)c3n2)CC1 [Example 207, 1-(4-{[7-(6-fluoropyridin-3-yl)-5H-pyrrolo[2,3-b]pyrazin-2-yl]amino}piperidin-1-yl)prop-2-en-1-one]
[1]
  IC50: 185 nM
[2]
  IC50: 2820 nM

## C=CC(=O)N1CCC(Nc2cnc3[nH]cc(-c4ccccc4)c3n2)CC1 [Example 209, 1-{4-[(7-phenyl-5H-pyrrolo[2,3-b]pyrazin-2-yl)amino]piperidin-1-yl}prop-2-en-1-one]
[1]
  IC50: 152 nM
[2]
  IC50: 6690 nM

## C=CC(=O)N1CCC(Nc2cnc3[nH]cc(-c4cnc(OC)nc4)c3n2)CC1 [Example 210, 1-(4-{[7-(2-methoxypyrimidin-5-yl)-5H-pyrrolo[2,3-b]pyrazin-2-yl]amino}piperidin-1-yl)prop-2-en-1-one]
[1]; Homo sapiens, PBMC
  IC50: 462 nM
[2]
  IC50: 2680 nM

## C=CC(=O)N1CCC(Nc2cnc3[nH]cc(-c4ccnc(F)c4)c3n2)CC1 [Example 211, 1-(4-{[7-(2-fluoropyridin-4-yl)-5H-pyrrolo[2,3-b]pyrazin-2-yl]amino}piperidin-1-yl)prop-2-en-1-one]
[1]
  IC50: 206 nM
[2]
  IC50: 4330 nM

## C=CC(=O)N1CCC(Nc2cnc3[nH]cc(-c4cncc(F)c4)c3n2)CC1 [Example 212, 1-(4-{[7-(5-fluoropyridin-3-yl)-5H-pyrrolo[2,3-b]pyrazin-2-yl]amino}piperidin-1-yl)prop-2-en-1-one]
[1]
  IC50: 154 nM
[2]
  IC50: 2080 nM

## C=CC(=O)N1CCC(Nc2cnc3[nH]cc(C(=O)N[C@@H]4C[C@H]4C(F)(F)F)c3n2)CC1 [Example 233, 2-[(1-acryloylpiperidin-4-yl)amino]-N-[(1R,2R)-2-(trifluoromethyl)cyclopropyl]-5H-pyrrolo[2,3-b]pyrazine-7-carboxamide]
[1]
  IC50: 213 nM
[2]
  IC50: 532 nM

## C=CC(=O)N1CCC(Nc2cnc3[nH]cc(C(=O)NC4CCCC(F)(F)C4)c3n2)CC1 (centres unmarked) [Example 236, 2-[(1-acryloylpiperidin-4-yl)amino]-N-(3,3-difluorocyclohexyl)-5H-pyrrolo[2,3-b]pyrazine-7-carboxamide]
[1]
  IC50: 142 nM
[2]
  IC50: 438 nM

## C=CC(=O)N1CCC(Nc2cnc3[nH]cc(C(=O)NCC4CC(F)(F)C4)c3n2)CC1 [Example 238, 2-[(1-acryloylpiperidin-4-yl)amino]-N-[(3,3-difluorocyclobutyl)methyl]-5H-pyrrolo[2,3-b]pyrazine-7-carboxamide]
[1]; Homo sapiens, PBMC
  IC50: 181 nM
[2]
  IC50: 615 nM

## C=CC(=O)N1CCC(Nc2cnc3[nH]cc(C(=O)NCCCC(F)(F)F)c3n2)CC1 [Example 240, 2-[(1-acryloylpiperidin-4-yl)amino]-N-(4,4,4-trifluorobutyl)-5H-pyrrolo[2,3-b]pyrazine-7-carboxamide]
[1]
  IC50: 83.8 nM
[2]
  IC50: 442 nM

## C=CC(=O)N1CCC(Nc2cnc3[nH]cc(C(=O)NC[C@H](C)CC(F)(F)F)c3n2)CC1 [Example 241, 2-[(1-acryloylpiperidin-4-yl)amino]-N-[(2R)-4,4,4-trifluoro-2-methylbutyl]-5H-pyrrolo[2,3-b]pyrazine-7-carboxamide]
[1]; Homo sapiens, PBMC
  IC50: 87.9 nM
[2]
  IC50: 657 nM

## C=CC(=O)N1CCC(Nc2cnc3[nH]cc(C(=O)NC4CC(F)C4)c3n2)CC1 (centres unmarked) [Example 243, 2-[(1-acryloylpiperidin-4-yl)amino]-N-(3-fluorocyclobutyl)-5H-pyrrolo[2,3-b]pyrazine-7-carboxamide]
[1]
  IC50: 155 nM
[2]
  IC50: 617 nM

## C=CC(=O)N1CCC(Nc2cnc3[nH]cc(C(=O)N[C@H]4CC[C@@H](F)C4)c3n2)CC1 [Example 244, 2-[(1-acryloylpiperidin-4-yl)amino]-N-[(1S,3R)-3-fluorocyclopentyl]-5H-pyrrolo[2,3-b]pyrazine-7-carboxamide]
[1]; Homo sapiens, PBMC
  IC50: 127 nM
[2]
  IC50: 403 nM
